Measurements from patent EP0887348A1, “Bis-Indole derivatives having antimetastatic activity, a process for their preparation and pharmaceutical compositions containing them” (Boehringer Mannheim Italia S.p.A., priority 1997, dated 1998).

Tested on: Lewis Lung (3LL) murine carcinoma
Assay type: in vivo, Female mice C57BL/6N
Experimental: The "in vivo" testing was performed against the Lewis Lung (3LL) murine carcinoma according to the following protocol.
Female mice C57BL/6N were inoculated intrafootpad with tumor fragments at day 0. At day 11 the mice were anesthetized and their tumors removed surgically proximal to the popliteale limph nodes. Animals were treated intraperitoneally with the compounds of the invention from one day after surgery until the end of the experiment, day 22 (post-surgery treatment at days 12-15, 18-22). All the compounds were suspended in 0.5% methylcellulose. The mean number of the pulmonary metastases and the mean weight thereof were determined. The toxicity of the compounds of the invention at the administered dosage was also checked, as number of deaths/total no. of treated mice by the end of the experiment.

With `c1cncc(C(c2c[nH]c3ccccc23)c2c[nH]c3ccccc23)c1` [example 1, 3-[bis(indol-3-yl)methyl]pyridine] the Toxicity (mouse, in vivo, ip, 200 mg/kg/day) was 0/9, the “Mean weight (mg) of metastases (S.D.)” value (pulmonary metastases, 200 mg/kg/day intraperitoneally, post-surgery treatment day 12-15, 18-22 after tumor injection, control 197.6 (55.0)) was 99.2 (63.5) mg and the “Mean No. of metastases (S.D.)” value (pulmonary metastases, 200 mg/kg/day intraperitoneally, post-surgery treatment day 12-15, 18-22 after tumor injection, suspended in 0.5% methylcellulose, control 65.9 (11.7)) was 31.4 (14.0).
